Assay results reported in patent publication US20240308988A1, “Method For Controlling Diamide Resistant Pests and Compounds Therefor” (priority 2021, published 2024).

Experiments:
[1] = system: Plutella xylostella (Diamond back moth) ryanodine receptor, containing the G4946E resistance mutation; assay: In vitro calcium fluorescence assay (Fluo-8 NW, FDSS) in human embryonic kidney cells expressing the ryanodine receptor; type: cell-based; conditions: table, EC50 (compound)/EC50 (cyantraniliprole), G4946E RyR in HEK cells
Procedure, shortened: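 Fluo-8 NW-loaded cells, compounds at 10 rates, intracellular calcium fluorescence read on FDSS. EC50 from dose-response curves, normalized to in-assay cyantraniliprole as REC50 = EC50(compound)/EC50(cyantraniliprole).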

[2] = system: Resistant Plutella xylostella R1 (multi-resistant larvae having the G4946E resistance mutation); assay: Resistant Plutella xylostella R1 (Diamond back moth) larvicide L3, feeding/contact, sprayed Chinese cabbage leaves; type: in vivo
[3] = system: Resistant Plutella xylostella R4 (carries the RyR mutation G4946E); assay: Resistant Plutella xylostella R4 (Diamond back moth) larvicide L1, feeding/contact, artificial diet in 24-well plates; type: in vivo
Experimental: Resistant Plutella xylostella R4 (Diamond back moth) larvicide L1, feeding/contact 24-well microtiter plates with artificial diet were treated with aqueous test solutions prepared from 10′000 ppm DMSO stock solutions by pipetting. After drying, around 30 Plutella eggs were pipetted through a plastic stencil onto a gel blotting paper and the plate was closed with it. The samples were assessed for mortality in comparison to untreated samples 8 days after infestation.
Chlorantraniliprole was used as standard and a resistance factor of 242 was obtained for this strain
Plutella xylostella resistant strain R4 originated in the lab in 2021 from crossing the R1 strain with a lab-reared susceptible P. xylostella strain (SUS). R4 can be reared and tested on artificial diet and also carries the RyR mutation G4946E conferring resistance to diamides. The strain is selected approximately every two weeks with chlorantraniliprole. The following compounds, according to the present invention, gave at least 80% control of the resistant strain of Plutella xylostella R4 at 50 ppm or below: P11, P18, P26, P31, P33, P34, P36, P38, P42, P43, P46, P49, P50, P52, P56, P58, P60, P61, P63, P64, P65, P66, P67, P73, P76, P84, P97, P99, P102, P105.

Compound | melting point [°C] | other results
Cc1cc(Cl)cc(C(N)=O)c1NC(=O)c1cc(Br)nn1-c1ncccn1 | 187 to 198 | –
Cc1cc(C#N)cc(C(N)=O)c1NC(=O)c1cc(COCc2ccc(Cl)cc2)nn1-c1ncccc1Cl [Compound P12, N-(2-carbamoyl-4-cyano-6-methyl-phenyl)-5-[(4-chlorophenyl)methoxymethyl]-2-(3-chloro-2-pyridyl)pyrazole-3-carboxamide] | 109 to 112 | –
COc1cc(C(=O)Nc2c(Br)cc(Cl)cc2C(N)=O)n(-c2ncccc2Cl)n1 [Compound P55, N-(2-bromo-6-carbamoyl-4-chloro-phenyl)-2-(3-chloro-2-pyridyl)-5-methoxy-pyrazole-3-carboxamide] | 205 to 210 | –
Cc1cc(I)cc(C(N)=O)c1NC(=O)c1cc(C(F)F)nn1-c1ncccc1Cl | 155 to 160 | –
NC(=O)c1cc(Cl)cc(Br)c1NC(=O)c1cc(Cn2cc(C(F)(F)F)nn2)nn1-c1ncccc1Cl | > 250 | –
Cc1cc(Cl)cc(C(N)=O)c1NC(=O)c1cc(CC#N)nn1-c1ncccc1Cl [Compound P70, N-(2-carbamoyl-4-chloro-6-methyl-phenyl)-2-(3-chloro-2-pyridyl)-5-(cyanomethyl)pyrazole-3-carboxamide] | 180 to 185 | –
Cc1cc(Cl)cc(C(N)=O)c1NC(=O)c1cc(CS(C)(=O)=O)nn1-c1ncccc1Cl | 140 to 145 | –
Cc1cc(Cl)cc(C(N)=O)c1NC(=O)c1cc(C[S+](C)[O-])nn1-c1ncccc1Cl (stereo not drawn) | 125 to 130 | –
Cc1cc(Br)cc(C(N)=O)c1NC(=O)c1cc(I)nn1-c1ncccc1Cl [Compound P39, N-(4-bromo-2-carbamoyl-6-methyl-phenyl)-2-(3-chloro-2-pyridyl)-5-iodo-pyrazole-3-carboxamide] | > 250 | –
NC(=O)c1cc(Br)cc(Cl)c1NC(=O)c1cc(Cn2cc(C(F)(F)F)nn2)nn1-c1ncccc1Cl | 135 to 140 | –
Cc1cc(Cl)cc(C(N)=O)c1NC(=O)c1cc(C2(F)CC2)nn1-c1ncccc1Cl | 225 to 230 | –
NC(=O)c1cc(Br)cc(Cl)c1NC(=O)c1cc(Cn2ncc(C(F)(F)F)n2)nn1-c1ncccc1Cl [Compound P37, N-(4-bromo-2-carbamoyl-6-chloro-phenyl)-2-(3-chloro-2-pyridyl)-5-[[4-(trifluoromethyl)triazol-2-yl]methyl]pyrazole-3-carboxamide] | 185 to 190 | –
Cc1cc(Br)cc(C(N)=O)c1NC(=O)c1cc(Cn2cc(C(F)(F)F)nn2)nn1-c1ncccc1Cl [Compound P35, N-(4-bromo-2-carbamoyl-6-methyl-phenyl)-2-(3-chloro-2-pyridyl)-5-[[4-(trifluoromethyl)triazol-1-yl]methyl] pyrazole-3-carboxamide] | 190 to 195 | –
COc1cc(C(=O)Nc2c(Cl)cc(Br)cc2C(N)=O)n(-c2ncccc2Cl)n1 [Compound P47, N-(4-bromo-2-carbamoyl-6-chloro-phenyl)-2-(3-chloro-2-pyridyl)-5-methoxy-pyrazole-3-carboxamide] | 160 to 165 | REC50 (Compound of the invention) [1]: 0.61
COc1cc(C(=O)Nc2c(Cl)cc(Cl)cc2C(N)=O)n(-c2ncccc2Cl)n1 [Compound P59, N-(2-carbamoyl-4,6-dichloro-phenyl)-2-(3-chloro-2-pyridyl)-5-methoxy-pyrazole-3-carboxamide] | 155 to 160 | REC50 (Compound of the invention) [1]: 0.62
CCc1cc(C(=O)Nc2c(C)cc(Cl)cc2C(N)=O)n(-c2ncccc2Cl)n1 [Compound P75, N-(2-carbamoyl-4-chloro-6-methyl-phenyl)-2-(3-chloro-2-pyridyl)-5-ethyl-pyrazole-3-carboxamide] | 245 to 250 | REC50 (Compound of the invention) [1]: 0.69
Cc1cc(Cl)cc(C(N)=O)c1NC(=O)c1cc(COCc2ccc(Cl)cc2)nn1-c1ncccc1Cl [Compound P5, N-(2-carbamoyl-4-chloro-6-methyl-phenyl)-5-[(4-chlorophenyl)methoxymethyl]-2-(3-chloro-2-pyridyl)pyrazole-3-carboxamide] | 174 to 176 | REC50 (Compound of the invention) [1]: 0.31
COCc1cc(C(=O)Nc2c(C)cc(Cl)cc2C(N)=O)n(-c2ncccc2Cl)n1 | 225 to 230 | –
Cc1cc(Cl)cc(C(N)=O)c1NC(=O)c1cc(C2(C#N)CC2)nn1-c1ncccc1Cl [Compound P72, N-(2-carbamoyl-4-chloro-6-methyl-phenyl)-2-(3-chloro-2-pyridyl)-5-(1-cyanocyclopropyl)pyrazole-3-carboxamide] | 225 to 230 | –
COc1cc(C(=O)Nc2c(C)cc(Br)cc2C(N)=O)n(-c2ncccc2Cl)n1 [Compound P45, N-(4-bromo-2-carbamoyl-6-methyl-phenyl)-2-(3-chloro-2-pyridyl)-5-methoxy-pyrazole-3-carboxamide] | 210 to 215 | REC50 (Compound of the invention) [1]: 0.24
NC(=O)c1cc(Br)cc(F)c1NC(=O)c1cc(Cn2nnc(C(F)(F)F)n2)nn1-c1ncccc1Cl [Compound P41, N-(4-bromo-2-carbamoyl-6-fluoro-phenyl)-2-(3-chloro-2-pyridyl)-5-[[5-(trifluoromethyl)tetrazol-2-yl]methyl]pyrazole-3-carboxamide] | 110 to 115 | –
CNC(=O)c1cc(Cl)cc(C)c1NC(=O)c1cc(Br)nn1-c1ncccc1Cl [Chlorantraniliprole, chlorantraniliprole, reference compound] | – | REC50 (Comparative compound) ([1]; secondary amide analogue): 0.35; resistance factor ([2]; strain R1, chlorantraniliprole used as standard): 146; resistance factor ([3]; strain R4, chlorantraniliprole used as standard): 242
Cc1cc(Br)cc(C(N)=O)c1NC(=O)c1cc(C(F)(F)F)nn1-c1ncccc1Cl [Compound P26, N-(4-bromo-2-carbamoyl-6-methyl-phenyl)-2-(3-chloro-2-pyridyl)-5-(trifluoromethyl)pyrazole-3-carboxamide] | – | REC50 (Compound of the invention) [1]: 0.19; pest or weed control at 50 µg/mL ([2]; Plutella xylostella, 96 h, read-out: control of the resistant strain of Plutella xylostella R1): ≥ 80%; pest or weed control at 50 µg/mL ([3]; Plutella xylostella, 192 h, read-out: control of the resistant strain of Plutella xylostella R4): ≥ 80%
CSCc1cc(C(=O)Nc2c(C)cc(Cl)cc2C(N)=O)n(-c2ncccc2Cl)n1 [Compound P79, N-(2-carbamoyl-4-chloro-6-methyl-phenyl)-2-(3-chloro-2-pyridyl)-5-(methylsulfanylmethyl)pyrazole-3-carboxamide] | 175 to 180 | –
